Earlier results on two compounds are cited in US9029427B2, “Controlled release solid preparation” (Asahi Kasei Chemicals Corporation, priority 2005, dated 2015).

The conditions of the data set: water.

Molecules are shown by their SMILES. Where only a bound is given, the exact number is not on record here.

`CCOc1ccccc1C(N)=O` [Ethenzamide]: the “amount of solvent required for dissolving 1 g of solute” value is at least 10000 cm^3.
Regarding `O=C([O-])c1ccccc1O.[Na+]` [sodium salicylate], the “amount of solvent required for dissolving 1 g of solute” value is “less than 1 cm^3”.
